Key:
[1] = test system: leaf disc explants of in vitro grown potato plants; experiment: Leaf disk kill curve (callus formation in leaf disc explants); format: cell-based; settings: solid Haberlach culture medium, 1% DMSO
Method: Aimed at establish the concentration of sulfentrazone that will inhibit callus formation in leaf disc explants, leaf discs were punched with a sterile hole punch from 5 weeks old in vitro grown potato plants. The leaf discs were cultured in petri dishes containing solid Haberlach culture medium containing various concentrations of Sulfentrazone in a final concentration of 1% DMSO. Six leaf discs cultured at each herbicide concentration. Plates were sealed with micropore tape and incubated at room temperature (approximately 23° C.). In an initial experiment, 7.8 μM sulfentrazone, the lowest concentration tested in that experiment, was sufficient to stop callus formations and bleach all leaf discs within 20 days. […] Similar leaf disc kill curve experiments were performed using saflufenacil where 0.5 μM of this herbicide was sufficient to inhibit callus formation in almost all leaf discs after 20 days.

[2] = test system: potato plastidal PPX; experiment: Tolerance to saflufenacil of HemG mutant E. coli complemented with potato plastidal PPX (plate based selection, colony count); format: cell-based, Solanum tuberosum
Text: StcPPX1, less its chloroplast transit peptide was cloned from cDNA into Cibus' proprietary functional screening vector. This vector may be used both for functional screening, and for GRON QC. The potato PPX genes were used to complement the HemG mutant strain of E. coli, which lacks a functional HemG gene, a bacterial homolog of PPX. Without a complementing gene, the media must be supplemented with hematin for E. coli growth.
In order to assess mutations that confer tolerance to PPX inhibitors such as Chateau (flumioxazin-Valent/Sumitomo), Naja (diphenylether—MAI) or Kixor (saflufenacil—BASF). Pure active ingredients for the PPX inhibiting herbicides Chateau (flumioxazin—Valent/Sumitomo), Spartan (sulfentrazone—FMC) and Kixor/Sharpen (saflufenacil—BASF) were obtained. […] This was further refined, and 0.75 mM sulfentrazone was also used to select for tolerance. […] All potato mitochondrial PPX genes and alleles were tested for natural tolerance to sulfentrazone and flumioxazin, but none were tolerant.
Tolerance of all possible amino acid substitutions at each position displaying tolerance to sulfentrazone or flumioxazin were tested. Next, single amino acid substitutions were combined in all permutations and combinations to assess complementation and herbicide tolerance.

CC(C)N(C)S(=O)(=O)NC(=O)c1cc(-n2c(=O)cc(C(F)(F)F)n(C)c2=O)c(F)cc1Cl [saflufenacil]
concentration sufficient to inhibit callus formation in almost all leaf discs after 20 days [1]: 0.5 µM | saflufenacil concentration with no growth of the wildtype construct [2]: 0.3 mM
